{"source": "ChEMBL document CHEMBL4376823", "about": "“The discovery of a potent and selective third-generation EGFR kinase inhibitor as a therapy for EGFR L858R/T790M double mutant non-small cell lung cancer” (Eur J Med Chem, 2019)", "key": {"[1]": {"tested_on": "NCI-H1975", "test": "Induction of apoptosis in human NCI-H1975 cells assessed as late apoptotic cells at 50 nM incubated for 48 hrs by propidium iodide and annexin-V FITC staining based flow cytometry (reference value: 0.23 %)", "assay_type": "functional"}, "[2]": {"tested_on": "NCI-H1975", "test": "Induction of apoptosis in human NCI-H1975 cells assessed as viable cells at 50 nM incubated for 48 hrs by propidium iodide and annexin-V FITC staining based flow cytometry (reference value: 99.05 %)", "assay_type": "functional", "settings": "NCI-H1975, 48 h, read-out: Activity"}, "[3]": {"test": "MRT (0 to t) in ICR mouse at 10 mg/kg, po", "assay_type": "ADME, organism-based", "settings": "in vivo"}, "[4]": {"test": "Tmax in ICR mouse at 5 mg/kg, iv", "assay_type": "ADME, organism-based", "settings": "in vivo"}, "[5]": {"test": "MRT (0 to infinity) in ICR mouse at 5 mg/kg, iv", "assay_type": "ADME, organism-based", "settings": "in vivo"}, "[6]": {"test": "Cmax in ICR mouse at 10 mg/kg, po", "assay_type": "ADME, organism-based", "set-up": "dose 10 mg/kg, route oral", "settings": "in vivo"}, "[7]": {"tested_on": "NCI-H1975", "test": "Induction of apoptosis in human NCI-H1975 cells assessed as late apoptotic cells at 5 nM incubated for 48 hrs by propidium iodide and annexin-V FITC staining based flow cytometry (reference value: 0.23 %)", "assay_type": "functional"}, "[8]": {"tested_on": "NCI-H1975", "test": "Induction of apoptosis in human NCI-H1975 cells assessed as early apoptotic cells at 25 nM incubated for 72 hrs by propidium iodide and annexin-V FITC staining based flow cytometry (reference value: 2.43 %)", "assay_type": "functional"}, "[9]": {"test": "Cytotoxicity against human HLF cells expressing EGFR assessed as reduction in cell viability incubated for 72 hrs by MTT assay", "assay_type": "cell-based"}, "[10]": {"test": "Selectivity index, ratio of IC50 for human BJ cells to IC50 for human NCI-H1975 cells expressing EGFR T790M/L858R mutant", "assay_type": "toxicity"}, "[11]": {"tested_on": "NCI-H1975", "test": "Induction of apoptosis in human NCI-H1975 cells assessed as viable cells at 25 nM incubated for 72 hrs by propidium iodide and annexin-V FITC staining based flow cytometry (reference value: 97.55 %)", "assay_type": "functional", "settings": "NCI-H1975, 72 h, read-out: Activity"}, "[12]": {"tested_on": "NCI-H1975", "test": "Induction of apoptosis in human NCI-H1975 cells assessed as necrotic cells at 50 nM incubated for 72 hrs by propidium iodide and annexin-V FITC staining based flow cytometry (reference value: 0.01 %)", "assay_type": "functional"}, "[13]": {"tested_on": "NCI-H1975", "test": "Inhibition of cell migration in human NCI-H1975 cells at 5 nM incubated for 24 hrs by phase contrast microscopy relative to control", "assay_type": "functional", "settings": "NCI-H1975, 24 h"}, "[14]": {"tested_on": "NCI-H1975", "test": "Induction of apoptosis in human NCI-H1975 cells assessed as viable cells at 5 nM incubated for 72 hrs by propidium iodide and annexin-V FITC staining based flow cytometry (reference value: 97.55 %)", "assay_type": "functional", "settings": "NCI-H1975, 72 h, read-out: Activity"}, "[15]": {"tested_on": "NCI-H1975", "test": "Induction of apoptosis in human NCI-H1975 cells assessed as late apoptotic cells at 5 nM incubated for 72 hrs by propidium iodide and annexin-V FITC staining based flow cytometry (reference value: 0.01 %)", "assay_type": "functional"}, "[16]": {"tested_on": "NCI-H1975", "test": "Inhibition of cell migration in human NCI-H1975 cells at 25 nM incubated for 24 hrs by phase contrast microscopy relative to control", "assay_type": "functional", "settings": "Homo sapiens, NCI-H1975, 24 h"}, "[17]": {"tested_on": "NCI-H1975", "test": "Induction of apoptosis in human NCI-H1975 cells assessed as late apoptotic cells at 50 nM incubated for 72 hrs by propidium iodide and annexin-V FITC staining based flow cytometry (reference value: 0.01 %)", "assay_type": "functional"}, "[18]": {"tested_on": "NCI-H1975", "test": "Induction of apoptosis in human NCI-H1975 cells assessed as viable cells at 50 nM incubated for 72 hrs by propidium iodide and annexin-V FITC staining based flow cytometry (reference value: 97.55 %)", "assay_type": "functional", "settings": "NCI-H1975, 72 h, read-out: Activity"}, "[19]": {"molecular_target": "T1, Epidermal growth factor receptor (Homo sapiens, UniProt P00533, L858R/T790M)", "test": "Inhibition of EGFR T790M/L858R mutant in human NCI-H1975 cells assessed as reduction in EGFR Y1068 phosphorylation incubated for 4 hrs by Western blot analysis", "assay_type": "cell-based"}, "[20]": {"test": "Oral bioavailability in ICR mouse at 10 mg/kg", "assay_type": "ADME, organism-based", "settings": "in vivo"}, "[21]": {"molecular_target": "Epidermal growth factor receptor (Homo sapiens, UniProt P00533, L858R)", "sequence (P00533 25-1210 L858R limits assumed)": "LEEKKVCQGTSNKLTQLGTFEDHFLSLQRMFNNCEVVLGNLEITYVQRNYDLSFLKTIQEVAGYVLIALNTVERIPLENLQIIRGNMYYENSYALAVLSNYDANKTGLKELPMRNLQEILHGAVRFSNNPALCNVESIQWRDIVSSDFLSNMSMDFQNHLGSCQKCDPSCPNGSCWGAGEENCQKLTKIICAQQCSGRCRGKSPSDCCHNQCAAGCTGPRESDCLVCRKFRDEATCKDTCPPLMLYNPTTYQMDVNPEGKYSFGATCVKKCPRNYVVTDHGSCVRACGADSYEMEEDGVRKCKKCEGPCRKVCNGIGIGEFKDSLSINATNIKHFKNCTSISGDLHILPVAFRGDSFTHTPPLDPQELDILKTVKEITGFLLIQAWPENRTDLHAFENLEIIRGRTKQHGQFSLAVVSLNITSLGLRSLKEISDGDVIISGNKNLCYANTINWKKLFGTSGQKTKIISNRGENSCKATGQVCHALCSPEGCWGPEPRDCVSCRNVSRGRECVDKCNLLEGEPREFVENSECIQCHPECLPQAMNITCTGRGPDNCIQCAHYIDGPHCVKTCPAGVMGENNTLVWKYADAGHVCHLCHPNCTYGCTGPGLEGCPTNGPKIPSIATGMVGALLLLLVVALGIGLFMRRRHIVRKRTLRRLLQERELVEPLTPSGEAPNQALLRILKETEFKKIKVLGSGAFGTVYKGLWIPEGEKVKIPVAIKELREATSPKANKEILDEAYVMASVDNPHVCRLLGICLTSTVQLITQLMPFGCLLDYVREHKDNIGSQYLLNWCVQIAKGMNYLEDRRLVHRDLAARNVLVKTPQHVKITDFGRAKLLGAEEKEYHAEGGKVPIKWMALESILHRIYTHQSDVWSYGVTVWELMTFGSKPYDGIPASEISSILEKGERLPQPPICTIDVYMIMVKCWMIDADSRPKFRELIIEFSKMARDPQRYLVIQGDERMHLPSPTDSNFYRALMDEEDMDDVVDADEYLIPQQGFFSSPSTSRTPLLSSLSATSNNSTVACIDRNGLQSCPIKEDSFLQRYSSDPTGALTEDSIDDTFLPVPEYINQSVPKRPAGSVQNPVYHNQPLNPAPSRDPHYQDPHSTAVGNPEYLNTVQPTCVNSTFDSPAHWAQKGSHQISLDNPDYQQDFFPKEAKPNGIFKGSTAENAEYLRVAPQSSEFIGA", "test": "Inhibition of recombinant human GST-tagged EGFR L858R mutant expressed in baculovirus expression system using Tyr 04 as substrate incubated for 1 hr by Z'-LYTE assay"}, "[22]": {"test": "Selectivity index, ratio of IC50 for human HLF cells to IC50 for human NCI-H1975 cells expressing EGFR T790M/L858R mutant"}, "[23]": {"test": "Selectivity index, ratio of IC50 for human HK2 cells to IC50 for human NCI-H1975 cells expressing EGFR T790M/L858R mutant"}, "[24]": {"tested_on": "NCI-H1975", "test": "Induction of apoptosis in human NCI-H1975 cells assessed as early apoptotic cells at 50 nM incubated for 24 hrs by propidium iodide and annexin-V FITC staining based flow cytometry (reference value: 0.94 %)", "assay_type": "functional"}, "[25]": {"tested_on": "NCI-H1975", "test": "Induction of apoptosis in human NCI-H1975 cells assessed as viable cells at 5 nM incubated for 48 hrs by propidium iodide and annexin-V FITC staining based flow cytometry (reference value: 99.05 %)", "assay_type": "functional", "settings": "NCI-H1975, 48 h, read-out: Activity"}, "[26]": {"tested_on": "NCI-H1975", "test": "Induction of apoptosis in human NCI-H1975 cells assessed as viable cells at 25 nM incubated for 48 hrs by propidium iodide and annexin-V FITC staining based flow cytometry (reference value: 99.05 %)", "assay_type": "functional", "settings": "NCI-H1975, 48 h, read-out: Activity"}, "[27]": {"test": "MRT (0 to infinity) in ICR mouse at 10 mg/kg, po", "assay_type": "ADME, organism-based", "settings": "in vivo"}, "[28]": {"tested_on": "NCI-H1975", "test": "Induction of apoptosis in human NCI-H1975 cells assessed as viable cells at 5 nM incubated for 24 hrs by propidium iodide and annexin-V FITC staining based flow cytometry (reference value: 98.82 %)", "assay_type": "functional", "settings": "NCI-H1975, 24 h, read-out: Activity"}, "[29]": {"test": "Selectivity index, ratio of IC50 for human LO2 cells to IC50 for human NCI-H1975 cells expressing EGFR T790M/L858R mutant", "assay_type": "toxicity"}, "[30]": {"test": "Tmax in ICR mouse at 10 mg/kg, po", "assay_type": "ADME, organism-based", "settings": "in vivo"}, "[31]": {"molecular_target": "T1, Epidermal growth factor receptor", "test": "Inhibition of recombinant human GST-tagged EGFR T790M/L858R mutant expressed in baculovirus expression system using Tyr 04 as substrate incubated for 1 hr by Z'-LYTE assay"}, "[32]": {"tested_on": "NCI-H1975", "test": "Induction of apoptosis in human NCI-H1975 cells assessed as necrotic cells at 25 nM incubated for 24 hrs by propidium iodide and annexin-V FITC staining based flow cytometry (reference value: 0.01 %)", "assay_type": "functional"}, "[33]": {"tested_on": "NCI-H1975", "test": "Induction of apoptosis in human NCI-H1975 cells assessed as late apoptotic cells at 5 nM incubated for 24 hrs by propidium iodide and annexin-V FITC staining based flow cytometry (reference value: 0.23 %)", "assay_type": "functional"}, "[34]": {"test": "Cytotoxicity against human HEK293A cells expressing EGFR assessed as reduction in cell viability incubated for 72 hrs by MTT assay", "assay_type": "cell-based, HEK293-A", "settings": "hek293-a"}, "[35]": {"tested_on": "NCI-H1975", "test": "Induction of apoptosis in human NCI-H1975 cells assessed as necrotic cells at 25 nM incubated for 72 hrs by propidium iodide and annexin-V FITC staining based flow cytometry (reference value: 0.01 %)", "assay_type": "functional"}, "[36]": {"test": "Half life in ICR mouse at 10 mg/kg, po", "assay_type": "ADME, organism-based", "settings": "in vivo"}}, "data": [{"smiles": "C=CC(=O)Nc1cc(Nc2nccc(-c3cn(C)c4ccccc34)n2)c(OC)cc1[S+]([O-])CCN(C)C", "note": "(single isomer, unassigned; (-))", "values": [{"measurement": "Activity", "setting": "[1]", "value": 29.59, "unit": "%"}, {"measurement": "viability at 0.05 µM", "setting": "[2]", "value": 13.7, "unit": "%"}, {"measurement": "MRT last", "setting": "[3]", "value": 2.32, "unit": "h"}, {"measurement": "Tmax", "setting": "[4]", "value": 4.8, "unit": "min"}, {"measurement": "MRT inf", "setting": "[5]", "value": 1.21, "unit": "h"}, {"measurement": "Cmax", "setting": "[6]", "value": 695, "unit": "ng/mL"}, {"measurement": "Activity", "setting": "[7]", "value": 0.06, "unit": "%"}, {"measurement": "Activity", "setting": "[8]", "value": 43.25, "unit": "%"}, {"measurement": "IC50", "setting": "[9]", "value": 9140, "unit": "nM"}, {"measurement": "Ratio IC50", "setting": "[10]", "value": "> 1000"}, {"measurement": "viability at 0.025 µM", "setting": "[11]", "value": 35.2, "unit": "%"}, {"measurement": "Activity", "setting": "[12]", "value": 1.84, "unit": "%"}, {"measurement": "inhibition at 0.005 µM", "setting": "[13]", "value": 45.1, "unit": "%"}, {"measurement": "viability at 0.005 µM", "setting": "[14]", "value": 57.5, "unit": "%"}, {"measurement": "Activity", "setting": "[15]", "value": 18.71, "unit": "%"}, {"measurement": "inhibition at 0.025 µM", "setting": "[16]", "value": 69.7, "unit": "%"}, {"measurement": "Activity", "setting": "[17]", "value": 30.74, "unit": "%"}, {"measurement": "viability at 0.05 µM", "setting": "[18]", "value": 11.3, "unit": "%"}, {"measurement": "EC50", "setting": "[19]", "value": 7.06, "unit": "nM"}, {"measurement": "bioavailability", "setting": "[20]", "value": 73.7, "unit": "%"}, {"measurement": "IC50", "setting": "[21]", "value": 4, "unit": "nM"}, {"measurement": "Ratio IC50", "setting": "[22]", "value": 910}, {"measurement": "Ratio IC50", "setting": "[23]", "value": ">1000"}, {"measurement": "Activity", "setting": "[24]", "value": 31.61, "unit": "%"}, {"measurement": "viability at 0.005 µM", "setting": "[25]", "value": 77, "unit": "%"}, {"measurement": "viability at 0.025 µM", "setting": "[26]", "value": 44.7, "unit": "%"}, {"measurement": "MRT inf", "setting": "[27]", "value": 2.68, "unit": "h"}, {"measurement": "viability at 0.005 µM", "setting": "[28]", "value": 83.6, "unit": "%"}, {"measurement": "Ratio IC50", "setting": "[29]", "value": "> 1000"}, {"measurement": "Tmax", "setting": "[30]", "value": 0.5, "unit": "h"}, {"measurement": "IC50", "setting": "[31]", "value": 4, "unit": "nM"}, {"measurement": "Activity", "setting": "[32]", "value": 0.14, "unit": "%"}, {"measurement": "Activity", "setting": "[33]", "value": 1.17, "unit": "%"}, {"measurement": "IC50", "setting": "[34]", "value": 1920, "unit": "nM"}, {"measurement": "Activity", "setting": "[35]", "value": 1.85, "unit": "%"}, {"measurement": "half-life", "setting": "[36]", "value": 1.73, "unit": "h"}]}]}
